According to patent US9745357B2, “Peptides used for treating cancers and, in particular, chronic lymphoid leukaemia” (Centre National de la Recherche Scientifique, priority 2009, dated 2017):
Where two headings read alike, the source gives them in different places. No end group written: not given here.

Experiments:
[1] = test system: B lymphocytes from patients suffering from chronic lymphoid leukemia (CLL); settings: for IC50: read-out: IC50 (concentration of peptide causing the death of 50% of the cells), after 24 H
Protocol: Peripheral blood B lymphocytes taken from patients suffering from CLL and then purified on a Ficoll cushion and placed in culture are incubated in the presence of […] of the peptides described for FIG. 2. The percentage cell survival after 4 hours (gray column) or 24 hours (white column) of culture corresponds to the percentage of cells labeled neither with annexin nor with propidium iodide, evaluated by flow cytometry.
The CLL B lymphocytes were obtained from peripheral blood of 18 different patients suffering from chronic lymphoid leukemia. […] The samples were taken in the Brest hospital center, in the hematology department. The blood samples were taken after informing the patients and obtaining their informed consent.
The lymphocytes, mononuclear cells, were isolated from the heparinized peripheral blood samples by Ficoll-Hypaque (LSM 1077 lymphocyte, euro-bio) centrifugation. The red blood cells were lyzed by incubation for 10 min in VersaLyse Lysing Solution (Beckman Coulter). The mononuclear cells are obtained after 2 washes in culture medium (RPMI1640, Gibco BRL).
(§1) The cells were cultured in a culture medium composed either of RPMI 1640 (B lymphocytes) or of DMEM (COS7, HCT116, HGT1, 293, HeLa) containing 10% of FCS (fetal calf serum, 1% of penicillin-streptomycin and 1% of glutamine, Gibco BRL). The cells are distributed in a 24-well plate and cultured at 37° C. in a humid atmosphere under 5% CO2.
(§2) 400 μl of cell suspension (1×10^6 cells/ml) per well were treated for 4 h or 24 h with various concentrations of peptides. The test for activity of the peptides in the presence of emetine (FIG. 6) was carried out by preincubating the cells with 100 μM of emetine for one hour before the addition of peptide.
(§3) After the cells have been washed with PBS, they were analyzed using the Annexin V-FITC IP system according to the supplier's recommendations (Beckman Coulter).
The cells taken from patients suffering from chronic lymphoid leukemia were purified on a Ficoll cushion. […] The cells were placed in culture in RPMI medium in the presence of 10% FCS (fetal calf serum). The peptides were added directly to the culture medium. These peptides comprise the IRS sequence (the amino acid sequence of which is RYIRS) which is known to allow the penetration of peptides into B lymphocytes in culture (Dong et al., 2005). […] The cells which survive the treatment are those which are labeled neither with annexin nor with propidium iodide.

[2] = test system: Jok cells (cell line derived from B lymphocytes); experiment: Cell survival of Jok cells, annexin/propidium iodide flow cytometry; type: cell-based, human
Protocol: The cells are treated as indicated for FIG. 7, with the CLL cells, control T lymphocytes and Jok lymphocytes, which are incubated with the A1 WT IRS peptide and derivatives thereof described in table 1. The Jok cells were incubated either with 20 μM (JOK 20) or with 40 μM (JOK 40) of each of the peptides. In the interests of simplifying the legend, the A1 WT IRS peptide is referred to as “WT”. Likewise, the derivatives thereof are referred to by the name of the mutations (A1 K3I IRS is referred to as “K3I”, for example).
as §1, §2, §3
The peptides were tested on B lymphocytes from patients suffering from chronic lymphoid leukemia, control T lymphocytes, or Jok cells (cell line derived from B lymphocytes). The experiment was repeated three times for each type of cell tested.

[3] = test system: cells derived from a human colon cancer (HCT116); type: cell-based; settings: 4 h, 40 μM
Protocol: (§4) FIG. 7: Activity of the A1WT peptide on cells of lymphocytic, lymphoid, gastric, colonic or renal origin The cells are prepared and placed in culture (see Materials and Methods) and then incubated for 4 H with the A1WT or A1 YALA peptide. The percentage cell survival corresponds to the percentage of cells labeled neither with annexin nor with propidium iodide, evaluated by flow cytometry. The names of the pathological conditions from which the patients from whom the samples are taken are suffering are indicated under the figure. The control T (L.T.) and B (L.B.) lymphocytes are taken from patients suffering from a disease not related to a lymphocytic pathological condition (hemochromatosis).
as §1, §2, §3

[4] = test system: HGT1 cell line derived from a gastric cancer; type: cell-based; settings: 4 h, 40 μM
Protocol: as §4, §1, §2, §3

[5] = test system: cells derived from a simian kidney cancer (COS7); type: cell-based; settings: 4 h, 40 μM
Protocol: as §4, §1, §2, §3

[6] = test system: control T lymphocytes (patients suffering from hemochromatosis); experiment: Cell survival of control T lymphocytes, annexin/propidium iodide flow cytometry; type: cell-based, human
Protocol: as §4
The control B lymphocytes and T lymphocytes originate from peripheral blood samples from patients suffering from hemochromatosis, provided by the CTS transfusion center in Brest. The B and T lymphocytes were isolated using the Rosett-Sep kit (Stemcell Technologies) according to the supplier's recommendations.
as §1, §2, §3

[7] = test system: control T lymphocytes (patients suffering from hemochromatosis); experiment: as above; type: cell-based, human; settings: 40 μM, 4 hours; FIG. 9
[8] = test system: acute myeloid leukemia (AML) cells; type: cell-based, human; settings: 4 h, 40 μM
Protocol: as §4, §1
400 μl of cell suspension (1×10^6 cells/ml) per well were treated for 4 h or 24 h with various concentrations of peptides. […]
After the cells have been washed with PBS, they were analyzed using the Annexin V-FITC IP system according to the supplier's recommendations (Beckman Coulter). […]

[9] = 40 μM peptide, 4 hours of culture, cells not labeled with annexin or propidium iodide

Sequence: RRKYGRDFLLRFRYIRS [A1 WT IRS, RRKYGRDFLLRFRYIRS]
- cell survival, peptide in the presence of emetine ([1]; 40 μM peptide after 1 h preincubation with 100 μM emetine, 4 H (from 97%), FIG. 6): 27%
- cell effect CLL 40 (survival) [1, 9]: + (+: survival <25%)
- change of the effect on survival over time ([1]; 40 μM, 1 H, 2 H, 4 H and 24 H, FIG. 4): no longer active after 4 H of incubation
- effect of the peptide on cell mortality, in words (relative to A1 WT IRS) ([1]; 40 μM, 4 hours, FIG. 9): high cell mortality
- cell survival rate compared with cells incubated without peptide ([1]; 4 H of incubation with 20 μM of peptide, FIG. 8): less than 65%
- IC50 ([1]; batch of cells from a second patient): 24 µM
- IC50 ([1]; first patient, FIG. 5): ~28 µM
- cell effect Jok 20 (survival) ([2]; 20 μM peptide, 4 hours of culture, cells not labeled with annexin or propidium iodide): + (+: survival <25%)
- cell effect Jok 40 (survival) [2, 9]: + (+: survival <25%)
- effect of the peptide on cell mortality, in words (relative to A1 WT IRS) ([2]; 40 μM, 4 hours, FIG. 9): high cell mortality
- cell survival [3]: 94%
- cell survival [4]: more than 88%
- cell survival [5]: 90%
- cell effect LT 40 (survival) [6, 9]: + (+: survival <25%)
- survival rate ([6]; after 4 H of incubation with 40 μM, FIG. 7): 38%
- effect of the peptide on cell mortality, in words (relative to A1 WT IRS) [7]: the survival rate is higher in the control T cells
- survival rate [8]: 38%
